Source: PubChem BioAssay (NCI)
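Results reflect a 48-hour exposure of cells in 96-well plates to compound at five concentrations. GI50: concentration for 50% inhibition of growth. The concentration for full growth arrest is given as TGI.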

Experiments:
Assay in all cases: NCI tumour cell line growth inhibition, 48 h
[1] = test system: A549 NSCLC
[2] = test system: BT-549 breast
[3] = test system: K-562 leukemia
[4] = test system: M14 melanoma
[5] = test system: NCI/ADR-RES ovarian
[6] = test system: OVCAR-3 ovarian
[7] = test system: SF-295 CNS
[8] = test system: SK-OV-3 ovarian
[9] = test system: UO-31 renal
[10] = test system: EKVX NSCLC

Row | SMILES | GI50 [1] | TGI [1] | GI50 [2] | TGI [2] | GI50 [3] | TGI [3] | GI50 [4] | TGI [4] | GI50 [5] | TGI [5] | GI50 [6] | TGI [6] | GI50 [7] | TGI [7] | GI50 [8] | TGI [8] | GI50 [9] | TGI [9] | GI50 [10] | TGI [10]
1 | CCOC(=O)Nc1ccc2nc(-c3cscn3)[nH]c2c1 | 5.99 µM | > 100 µM | 7.1 µM | > 100 µM | 0.942 µM | > 100 µM | 2.86 µM | > 100 µM | 2.71 µM | > 74.9 µM | 3.79 µM | 23.4 µM | 4.78 µM | 57.6 µM | 3.61 µM | 29.8 µM | 8.77 µM | > 100 µM | – | –
2 | COc1cc(N2C(=O)[C@H](Cl)C2c2ccc(SC)cc2)cc(OC)c1OC (some centres undefined) | 0.463 µM | > 100 µM | 0.0989 µM | 0.748 µM | 0.0366 µM | > 100 µM | – | – | 0.0356 µM | > 100 µM | 0.0294 µM | 0.089 µM | 0.0394 µM | > 100 µM | 0.588 µM | > 100 µM | – | – | 0.209 µM | > 100 µM
3 | COC(=O)C1C=CCC2CCCCC21N1CCCC1 (centres undefined) | – | > 100 µM | – | – | – | – | – | > 100 µM | – | – | – | > 100 µM | – | > 100 µM | – | > 100 µM | – | > 100 µM | – | > 100 µM
4 | N=C1CCCC1C(=S)SCCC(N)=O (centres undefined) | – | > 100 µM | – | > 100 µM | – | – | – | > 100 µM | – | > 100 µM | – | > 100 µM | – | > 100 µM | – | > 100 µM | – | > 100 µM | – | > 100 µM
5 | N/N=C(/Cc1ccccc1)NNO | – | > 100 µM | – | – | – | > 100 µM | – | > 100 µM | – | – | – | > 100 µM | – | > 100 µM | – | – | – | – | – | > 100 µM
6 | CC1CCC2C(C)C(=O)OC2C2(C)C(=O)C=CC12 (centres undefined) | – | > 10 µM | – | – | – | > 10 µM | – | > 10 µM | – | > 10 µM | – | > 10 µM | – | > 10 µM | – | > 10 µM | – | > 10 µM | – | > 10 µM
7 | C=C1C(=O)O[C@@H]2/C=C(/C)[C@@H](OC(C)=O)C/C=C(\C)C(O)[C@@H](OC(=O)/C(C)=C\C)C12 (some centres undefined) | – | > 100 µM | – | 44.3 µM | – | 73.3 µM | – | > 100 µM | – | 76.5 µM | – | > 100 µM | – | > 100 µM | – | > 100 µM | – | – | – | > 100 µM
8 | Cc1ccc(C2=CC(=O)c3ccccc3C2=O)n1-c1ccccc1 | – | > 100 µM | – | – | – | > 100 µM | – | > 100 µM | – | – | – | > 100 µM | – | > 100 µM | – | > 100 µM | – | – | – | > 100 µM
9 | CN(C)C(=S)/N=c1\ss/c(=N\C(=S)N(C)C)n1-c1cccc(Cl)c1 | – | > 100 µM | – | – | – | > 100 µM | – | > 100 µM | – | – | – | > 100 µM | – | > 100 µM | – | – | – | > 100 µM | – | > 100 µM
10 | O=c1[nH]c(C2CCCN2)nc2c1oc1ccc(Cl)cc12 (centres undefined) | > 100 µM | > 100 µM | 31.5 µM | > 100 µM | > 84.4 µM | > 100 µM | 57.1 µM | > 100 µM | > 100 µM | > 100 µM | > 100 µM | > 100 µM | > 72.3 µM | > 100 µM | > 100 µM | > 100 µM | 26.9 µM | > 100 µM | – | –
11 | C1=CC(=P(c2ccccc2)(c2ccccc2)c2ccccc2)C=C1 | – | 79.7 µM | – | – | – | 11.3 µM | – | 24.3 µM | – | – | – | 23.7 µM | – | 30.8 µM | – | 35.3 µM | – | 30.8 µM | – | 82.5 µM
